Reference: patent US10093611B2, “Benzocycloalkenes as antifungal agents” (Bayer Intellectual Property GmbH, priority 2010, dated 2018)

These molecules were tested on Blumeria graminis fsp. hordei (assay: In vivo preventive test on Blumeria graminis (barley)). Conditions: 500 ppm of active ingredient, evaluated 7 days after inoculation.
Method: EXAMPLE B: IN VIVO PREVENTIVE TEST ON BLUMERIA GRAMINIS (BARLEY) Solvent: 49 parts by weight of N,N-dimethylacetamide Emulsifier: 1 part by weight of alkylaryl polyglycol ether To produce a suitable preparation of active compound, 1 part by weight of active compound or active compound combination is mixed with the stated amounts of solvent and emulsifier, and the concentrate is diluted with water to the desired concentration. To test for preventive activity, young plants are sprayed with the preparation of active compound or active compound combination at the stated rate of application. After the spray coating has been dried, the plants are dusted with spores of Blumeria graminis fsp. hordei. The plants are placed in the greenhouse at a temperature of approximately 18° C. and a relative atmospheric humidity of approximately 80% to promote the development of mildew pustules. The test is evaluated 7 days after the inoculation. 0% means an efficacy which corresponds to that of the untreated control, while an efficacy of 100% means that no disease is observed. Under these conditions, total protection is observed at a dose of 500 ppm of active ingredient with the following compounds from table B: […]
With Cc1nn(C)c(F)c1C(=O)N(C1CC1)C(C)C1Cc2ccccc2C1 (centres unmarked) [Example 11] the Efficacy was 100%.
For CCc1nn(C)c(F)c1C(=O)N(C1CC1)C(C)C1Cc2ccccc2C1 (centres unmarked) [Example 12], the Efficacy was 100%.
Molecule CC(C1Cc2ccccc2C1)N(C(=O)c1cn(C)nc1C(F)F)C1CC1 (centres unmarked) [Example 13] has an Efficacy of 100%.
Molecule CC(C1Cc2ccccc2C1)N(C(=O)c1c(C(F)F)nn(C)c1F)C1CC1 (centres unmarked) [Example 14, N-cyclopropyl-3-(difluoromethyl)-N-[1-(indan-2-yl)ethyl]-5-fluoro-1-methyl-1H-pyrazole-4-carboxamide] has an Efficacy of 100%.
Work on CC(C1CCc2ccccc2C1)N(C(=O)c1c(C(F)F)nn(C)c1F)C1CC1 (centres unmarked) [Example 16] yielded an Efficacy of 100%.
